What all share (assay type): cell-based
Assay [1] concerns human dermal fibroblasts. Nature of the assay: Sircol collagen assay, collagen synthesis by dermal fibroblasts. The settings on record: 0.5 mg/ml peptide, three weeks stimulation. As for the experimental part:
(§1) The human cells used were obtained from tebu-bio GmbH, Offenbach, Germany. The chondrocytes (Cat. No. 402-05a) or dermal fibroblasts (Cat. No. 106-05a) were first sown in 12-well culture plates and cultured at 37° C., 5% CO2 in Ham's F12 medium, to which 10% fetal calf serum, 20 U/ml penicillin-streptomycin and 50 μg/ml ascorbic acid were added. On every other day, the culture medium was replaced by new culture medium until the cells had reached 80% confluence. […] To investigate the collagen metabolism, the amount of newly synthesized collagen was determined after stimulating the cells with 0.5 mg/ml BCP for three weeks. The synthesized collagen was isolated using the Sircol assay (Article No. 054S5000, 2019, tebu-bio, Offenbach, Germany, or Biocolor Ltd., UK) according to the manufacturer's instructions. In brief, the culture medium was initially discarded and the adherent cell layers were digested with 0.1 mg pepsin solution in 0.5 M acetic acid at 4° C. overnight. The cell suspensions were neutralized by adding 100 μl of an acid-neutralizing reagent. The synthesized collagen was then separated off by adding 200 μl of an isolation and concentration solution with vigorous shaking at 4° C. overnight. After centrifugation (12,000 rpm, 10 min) and discarding the supernatant, the isolated collagen was resuspended in 1 ml of Sircol dye solution. After 30 minutes of shaking and another centrifugation, the collagen pellet was covered with 750 μl of cold acidic solid washing reagent. After another centrifugation, the supernatant was again discarded and the enriched collagen was taken up in 250 μl of alkaline solution. In each case 200 μl of the sample solutions were used for photometric quantification of the synthesized collagen. The absorbance was measured at a wavelength of 492 nm. The amount of collagen synthesized in each case was determined on the basis of standardized collagen solutions.

Assay [2] relates to human chondrocytes. Nature of the assay: Sircol collagen assay, collagen synthesis by chondrocytes. Particulars: 0.5 mg/ml peptide, three weeks stimulation. As for the experimental part: as §1
The test system of assay [3] is human dermal fibroblasts. Nature of the assay: Blyscan glycosaminoglycan assay, proteoglycan synthesis by dermal fibroblasts. Particulars: 0.5 mg/ml, two weeks stimulation; for increase in the synthesis of proteoglycans by dermal fibroblasts compared to untreated controls: hydroxylated peptides. As for the experimental part:
The human cells used were obtained from tebu-bio GmbH, Offenbach, Germany. The chondrocytes (Cat. No. 402-05a) or dermal fibroblasts (Cat. No. 106-05a) were first sown in 12-well culture plates and cultured at 37° C., 5% CO2 in Ham's F12 medium, to which 10% fetal calf serum, 20 U/ml penicillin-streptomycin and 50 μg/ml ascorbic acid were added. On every other day, the culture medium was replaced by new culture medium until the cells had reached 80% confluence. […] The Blyscan glycosaminoglycan assay (Article No. 054B3000, 2019, tebu-bio, Offenbach, Germany, or Biocolor Ltd., UK) was used to determine proteoglycans. The biosynthesis of proteoglycans was determined after stimulating dermal fibroblasts for two weeks. According to the manufacturer's instructions, after discarding the culture medium, the cell layers were covered with 1 ml of papain extraction solution and incubated for three hours at 65° C. with vigorous shaking. The cell suspensions were then centrifuged (10,000 g, 10 min) and the supernatants were collected. After adding 1 ml of Blyscan dye solution and shaking (30 min), the supernatants were centrifuged again (12,000 rpm, 10 min) and then discarded. The isolated proteoglycan pellets were resuspended in 500 μl of dissociation solution. A photometric determination of the synthesized proteoglycan in 200 μl sample solution was carried out at a wavelength of 656 nm in comparison to untreated control experiments.

Assay [4] concerns human chondrocytes. Nature of the assay: Blyscan glycosaminoglycan assay, proteoglycan synthesis by chondrocytes. Particulars: 0.5 mg/ml; for increase in collagen synthesis (in the proteoglycan assay, chondrocytes): hydroxylated peptides.

Where “and” joins values, the source holds several entries; their conditions need not be identical. Equal entries are not always repeated. Where no end group is shown, it is not given here. [ ]: non-standard residue; d: D form. Hyp = O=C(O)[C@@H]1C[C@@H](O)CN1

Regarding “Gly-Ala-4Hyp-Gly-Lys-Asp-Gly-Val-Arg-Gly-Leu-Thr-Gly-Pro-Ile-Gly-Pro-4Hyp-Gly-Pro-Ala-Gly-Ala-4Hyp-Gly-Asp-Lys-Gly-Glu-Ala-Gly-Pro-Ser-Gly-Pro-Ala-Gly-Pro-Thr-Gly-Ala-Arg-Gly-Ala-4Hyp-Gly-Asp-Arg-Gly-Glu-4Hyp-Gly-Pro-4Hyp-Gly-Pro-Ala-Gly [SEQ ID No. 19]”, the “increase in collagen synthesis by dermal fibroblasts compared to untreated controls” value in the assay on human dermal fibroblasts [1] stood at 40%. Besides, the “increase in collagen synthesis by chondrocytes compared to untreated controls” value in the assay with human chondrocytes [2] turned out to be 37%. For the same substance, the “increase in the synthesis of proteoglycans by dermal fibroblasts compared to untreated controls” value with human dermal fibroblasts [3] turned out to be 29%. Besides, the “increase in collagen synthesis (in the proteoglycan assay, chondrocytes)” value with human chondrocytes [4] is 18%.

For “Gly-Ala-4Hyp-Gly-Lys-Asp-Gly-Val-Arg-Gly-Leu-Thr-Gly-Pro-Ile-Gly-Pro-4Hyp-Gly-Pro-Ala-Gly-Ala-Arg (GA[Hyp]GKDGVRGLTGPIGP[Hyp]GPAGAR) [SEQ ID No. 9, collagen peptide comprising 24 amino acids]”, the “increase in collagen synthesis by dermal fibroblasts compared to untreated controls” value in the assay with human dermal fibroblasts [1] was determined as 38%. The “increase in collagen synthesis by chondrocytes compared to untreated controls” value with human chondrocytes [2] is reported as 24%. For the same substance, the “increase in the synthesis of proteoglycans by dermal fibroblasts compared to untreated controls” value with human dermal fibroblasts [3] came out at 27%. Further, the “increase in collagen synthesis (in the proteoglycan assay, chondrocytes)” value in the assay on human chondrocytes [4] amounted to 19%.

Consider “Gly-Ala-4Hyp-Gly-Pro-Pro-Gly-Pro-4Hyp-Gly-Ala-Arg-Gly-Gln-Ala-Gly-Val-Met-Gly-Phe-4Hyp-Gly-Pro-Lys [SEQ ID No. 10]”, for which the “increase in collagen synthesis by dermal fibroblasts compared to untreated controls” value with human dermal fibroblasts [1] worked out at 35%. Further, the “increase in collagen synthesis by chondrocytes compared to untreated controls” value in the assay with human chondrocytes [2] was found to be 20%. The “increase in the synthesis of proteoglycans by dermal fibroblasts compared to untreated controls” value in the assay with human dermal fibroblasts [3] amounted to 25%. In addition, the “increase in collagen synthesis (in the proteoglycan assay, chondrocytes)” value with human chondrocytes [4] amounted to 29%.

As to “Gly-Pro-4Hyp-Gly-Pro-Ala-Gly-Glu-Lys-Gly-Ala-4Hyp-Gly-Ala-Asp-Gly-Pro-Ala-Gly-Ala-4Hyp-Gly-Thr-Pro-Gly-Pro-Gln-Gly-Ile-Ala-Gly-Gln-Arg-Gly-Val (GP[Hyp]GPAGEKGA[Hyp]GADGPAGA[Hyp]GTPGPQGIAGQRGV) [SEQ ID No. 22, collagen peptide comprising 35 amino acids]”, the “increase in collagen synthesis by dermal fibroblasts compared to untreated controls” value with human dermal fibroblasts [1] came out at 43%. Also, the “increase in collagen synthesis by chondrocytes compared to untreated controls” value in the assay on human chondrocytes [2] turned out to be 46%. In addition, in the assay on human dermal fibroblasts [3], the “increase in the synthesis of proteoglycans by dermal fibroblasts compared to untreated controls” value came to 28%. Moreover, the “increase in collagen synthesis (in the proteoglycan assay, chondrocytes)” value with human chondrocytes [4] turned out to be 26%.

Take “Gly-Pro-4Hyp-Gly-Pro-Val-Gly-Thr-Lys-Gly-Ile-4Hyp-Gly-Val-Tyr-Gly-Pro-Leu-Gly-Ile-4Hyp-Gly-Thr-Pro-Gly-Pro-Trp-Gly-Ile-Leu-Gly-Thr-Lys-Arg-Gly-Val (GP[Hyp]GPVGTKGI[Hyp]GVYGPLGI[Hyp]GTPGPWGILGTKRGV) [SEQ ID No. 24, collagen peptide comprising 36 amino acids]”: the “increase in collagen synthesis by dermal fibroblasts compared to untreated controls” value in the assay on human dermal fibroblasts [1] worked out at 36%. Further, in the assay with human chondrocytes [2], the “increase in collagen synthesis by chondrocytes compared to untreated controls” value is 26%. Moreover, in the assay with human dermal fibroblasts [3], the “increase in the synthesis of proteoglycans by dermal fibroblasts compared to untreated controls” value was 26%. Further, in the assay with human chondrocytes [4], the “increase in collagen synthesis (in the proteoglycan assay, chondrocytes)” value is 15% and 26%.

Take “Gly-Val-4Hyp-Gly-Lys-Tyr-Gly-Val-Arg-Gly-Leu-Thr-Gly-Pro-Ile-Gly-Pro-4Hyp-Gly-Pro-Leu-Gly-Ile-4Hyp-Gly-Trp-Lys-Gly-Phe-Val-Gly-Pro-Thr (GV[Hyp]GKYGVRGLTGPIGP[Hyp]GPLGI[Hyp]GWKGFVGPT) [SEQ ID No. 23, collagen peptide comprising 33 amino acids]”: the “increase in collagen synthesis by dermal fibroblasts compared to untreated controls” value in the assay on human dermal fibroblasts [1] is 39%. The “increase in collagen synthesis by chondrocytes compared to untreated controls” value in the assay on human chondrocytes [2] is 19%. Also, the “increase in the synthesis of proteoglycans by dermal fibroblasts compared to untreated controls” value in the assay on human dermal fibroblasts [3] came to 22%. For the same substance, the “increase in collagen synthesis (in the proteoglycan assay, chondrocytes)” value with human chondrocytes [4] is on record as 11%.

Take “KGAPGADGPAGAPGTPGPQ [SEQ ID No. 15, collagen peptide comprising 19 amino acids]”: the “increase in collagen synthesis by dermal fibroblasts compared to untreated controls” value in the assay on human dermal fibroblasts [1] is listed as 23%. Further, in the assay with human chondrocytes [2], the “increase in collagen synthesis by chondrocytes compared to untreated controls” value is 31%. Moreover, in the assay with human dermal fibroblasts [3] (non-hydroxylated peptides), the “increase in collagen synthesis (in the proteoglycan assay, dermal fibroblasts)” value came to 18%. In addition, in the assay with human chondrocytes [4] (non-hydroxylated peptides), the “increase in the synthesis of proteoglycans by chondrocytes compared to untreated controls” value was found to be 6%.

Turning to “Lys-Gly-Ala-4Hyp-Gly-Ala-Asp-Gly-Pro-Ala-Gly-Ala-4Hyp-Gly-Thr-Pro-Gly-Pro-Gln (KGA[Hyp]GADGPAGA[Hyp]GTPGPQ) [SEQ ID No. 21, collagen peptide comprising 19 amino acids]”, in the assay on human dermal fibroblasts [1], the “increase in collagen synthesis by dermal fibroblasts compared to untreated controls” value is given as 36%. For the same substance, the “increase in collagen synthesis by chondrocytes compared to untreated controls” value in the assay on human chondrocytes [2] was found to be 55%. The “increase in the synthesis of proteoglycans by dermal fibroblasts compared to untreated controls” value in the assay with human dermal fibroblasts [3] is given as 27%. Moreover, the “increase in collagen synthesis (in the proteoglycan assay, chondrocytes)” value with human chondrocytes [4] was 22%.

These data come from patent publication US20220073592A1, “SYNTHETIC AND RECOMBINANT COLLAGEN PEPTIDES HAVING BIOLOGICAL ACTIVITY” (GELITA AG, priority 2018, published 2022).
